This assay concerns the target PD-1/PD-L1 (Homo sapiens (Human), UniProt Q9NZQ7). Briefly: PD-1/PD-L1 Homogenous Time-Resolved Fluorescence (HTRF) binding assay. As to conditions: PD-L1-His 10 nM, PD-1-Ig 20 nM; read-out: HTRF IC50. From the text: Methods for Testing the Ability of Macrocyclic Peptides to Compete for the Binding of PD-1 to PD-L1 Using Homogenous Time-Resolved Fluorescence (HTRF) Binding Assays
The ability of the compounds of formula (I) to bind to PD-L1 was investigated using a PD-1/PD-L1 Homogenous Time-Resolved Fluorescence (HTRF) binding assay.
Homogenous Time-Resolved Fluorescence (HTRF) Binding Assay
The interaction of PD-1 and PD-L1 can be assessed using soluble, purified preparations of the extracellular domains of the two proteins. The PD-1 and PD-L1 protein extracellular domains were expressed as fusion proteins with detection tags, for PD-1, the tag was the Fc portion of Immunoglobulin (PD-1-Ig) and for PD-L1 it was the 6 histidine motif (PD-L1-His). All binding studies were performed in an HTRF assay buffer consisting of dPBS supplemented with 0.1% […] bovine serum albumin and 0.05% (v/v) Tween-20. For the h/PD-L1-His binding assay, inhibitors were pre-incubated with PD-L1-His (10 nM final) for 15 m in 4 μl of assay buffer, followed by addition of PD-1-Ig (20 nM final) in 1 μl of assay buffer and further incubation for 15 m. HTRF detection was achieved using europium cryptate-labeled anti-Ig (1 nM final) and allophycocyanin (APC) labeled anti-His (20 nM final). Antibodies were diluted in HTRF detection buffer and 5 μl was dispensed on top of the binding reaction. The reaction mixture was allowed to equilibrate for 30 minutes and the resulting signal (665 nm/620 nm ratio) was obtained using an EnVision fluorometer. Additional binding assays were established between the human proteins PD-1-Ig/PD-L2-His (20 & 5 nM, respectively) and CD80-His/PD-L1-Ig (100 & 10 nM, respectively).
Recombinant Proteins: Human PD-1 (25-167) with a C-terminal human Fc domain of immunoglobulin G (Ig) epitope tag [hPD-1 (25-167)-3S-IG] and human PD-L1 (18-239) with a C-terminal His epitope tag [hPD-L1(18-239)-TVMV-His] were expressed in HEK293T cells and purified sequentially by ProteinA affinity chromatography and size exclusion chromatography. Human PD-L2-His and CD80-His was obtained through commercial sources.
Table 1 lists the IC50 values for representative examples of this disclosure measured in the PD-1/PD-L1 Homogenous Time-Resolved Fluorescence (HTRF) binding assay.
A general note: TR-FRET usually uses a lanthanide donor and a delayed reading to cut background.

Each structure is given as a SMILES string. pIC50: −log10 of the molar value. *1 amine or outer side, *2 acyl side, *3 side chain or, on linkers, in order; H or OH if unused. Where a SMILES comes first, the peptide text is derived from it. Bridges are numbered along the chain shown (N, C = ends). [ ]: non-standard residue; d: D form. Trp(1-CH2CO) = O=C([C@H](Cc1cn(CC(=O)[*:3])c2ccccc12)N[*:1])[*:2]; X7 = O=C([C@H](CNCc1cc(B(O)O[*:3])ccc1OCc1ccccc1)N[*:1])[*:2]; X22 = O=C([C@H](CNCc1c(B(O)O[*:3])ccc(Cl)c1F)N[*:1])[*:2]; Trp(1-CH2COOH) = N[C@@H](Cc1cn(CC(=O)O)c2ccccc12)C(=O)O; X21 = Cc1ccc(B(O)O[*:3])c(CNC[C@H](N[*:1])C(=O)[*:2])c1; X31 = O=C([C@H](CNCc1ccc(Cl)cc1B(O)O[*:3])N[*:1])[*:2]; X19 = O=C([C@H](CNCc1cccc(B(O)O[*:3])c1F)N[*:1])[*:2]; X8 = O=C([C@H](CNCc1ccc(B(O)O[*:3])cc1Cl)N[*:1])[*:2]; X3 = O=C([C@H](CNCc1ccc(B(O)O[*:3])cc1F)N[*:1])[*:2]; X1 = Cc1cc(CNC[C@H](N[*:1])C(=O)[*:2])cc(C)c1B(O)O; X20 = O=C([C@H](CCNCc1cccc(B(O)O)c1F)N[*:1])[*:2]; Hyp = O=C(O)[C@@H]1C[C@@H](O)CN1; NMeNle = CCCC[C@H](NC)C(=O)O; NMeA = CN[C@@H](C)C(=O)O; Dab = NCC[C@H](N)C(=O)O

Chain of PD-1/PD-L1 (Q9NZQ7 18-239): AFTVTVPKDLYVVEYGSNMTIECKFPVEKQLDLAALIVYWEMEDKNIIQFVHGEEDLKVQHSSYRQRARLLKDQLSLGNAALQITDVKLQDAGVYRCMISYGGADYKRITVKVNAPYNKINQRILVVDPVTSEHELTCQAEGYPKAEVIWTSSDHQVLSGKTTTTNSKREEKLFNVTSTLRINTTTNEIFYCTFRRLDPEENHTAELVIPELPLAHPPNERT

Take `CCCC[C@H]1C(=O)N(C)[C@@H](CCCC)C(=O)N[C@@H](CC(C)C)C(=O)N[C@H](C(=O)NCC(N)=O)CSCC(=O)N[C@@H](Cc2ccc(O)cc2)C(=O)N(C)[C@@H](C)C(=O)N[C@@H](CC(N)=O)C(=O)N2CCC[C@H]2C(=O)N[C@H]2CNCc3ccc(cc3F)B(O)OC(=O)Cn3cc(c4ccccc43)C[C@H](NC(=O)[C@H](CCN)NC(=O)[C@H](Cc3c[nH]c4ccccc34)NC(=O)[C@@H]3C[C@@H](O)CN3C(=O)[C@H](CC(C)C)NC2=O)C(=O)N1C` [Example 1013] ({CH2CO}-Y[NMeA]NP[X3]L[Hyp]W[Dab][Trp(1-CH2CO)][NMeNle][NMeNle]LCG-NH2; ester 5-10; thioether N-14): the pIC50 (as a rule, −log10 of the IC50, conventionally taken in molar units) was 8.43.
Under `CCCC[C@H]1C(=O)N(C)[C@@H](CCCC)C(=O)N[C@@H](CC(C)C)C(=O)N[C@H](C(=O)NCC(N)=O)CSCC(=O)N[C@@H](Cc2ccc(O)cc2)C(=O)N(C)[C@@H](C)C(=O)N[C@@H](CC(N)=O)C(=O)N2CCC[C@H]2C(=O)N[C@@H](CNCc2cc(C)c(B(O)O)c(C)c2)C(=O)N[C@@H](CC(C)C)C(=O)N2C[C@H](O)C[C@H]2C(=O)N[C@@H](Cc2c[nH]c3ccccc23)C(=O)N[C@@H](CCN)C(=O)N[C@@H](Cc2cn(CC(=O)O)c3ccccc23)C(=O)N1C` [Example 1014] ({CH2CO}-Y[NMeA]NP[X1]L[Hyp]W[Dab][Trp(1-CH2COOH)][NMeNle][NMeNle]LCG-NH2; thioether N-14) stands 8.09.
Regarding `CCCC[C@H]1C(=O)N(C)[C@@H](CCCC)C(=O)N[C@@H](CC(C)C)C(=O)N[C@H](C(=O)NCC(N)=O)CSCC(=O)N[C@@H](Cc2ccc(O)cc2)C(=O)N(C)[C@@H](C)C(=O)N[C@@H](CC(N)=O)C(=O)N2CCC[C@H]2C(=O)N[C@H]2CNCc3cccc(c3F)B(O)OC(=O)Cn3cc(c4ccccc43)C[C@H](NC(=O)[C@H](CCN)NC(=O)[C@H](Cc3c[nH]c4ccccc34)NC(=O)[C@@H]3C[C@@H](O)CN3C(=O)[C@H](CC(C)C)NC2=O)C(=O)N1C` [Example 1015] ({CH2CO}-Y[NMeA]NP[X19]L[Hyp]W[Dab][Trp(1-CH2CO)][NMeNle][NMeNle]LCG-NH2; ester 5-10; thioether N-14), the pIC50 was 8.17.
In the case of `CCCC[C@H]1C(=O)N(C)[C@@H](CCCC)C(=O)N[C@@H](CC(C)C)C(=O)N[C@H](C(=O)NCC(N)=O)CSCC(=O)N[C@@H](Cc2ccc(O)cc2)C(=O)N(C)[C@@H](C)C(=O)N[C@@H](CC(N)=O)C(=O)N2CCC[C@H]2C(=O)N[C@H]2CNCc3cc(C)ccc3B(O)OC(=O)Cn3cc(c4ccccc43)C[C@H](NC(=O)[C@H](CCN)NC(=O)[C@H](Cc3c[nH]c4ccccc34)NC(=O)[C@@H]3C[C@@H](O)CN3C(=O)[C@H](CC(C)C)NC2=O)C(=O)N1C` [Example 1016] ({CH2CO}-Y[NMeA]NP[X21]L[Hyp]W[Dab][Trp(1-CH2CO)][NMeNle][NMeNle]LCG-NH2; ester 5-10; thioether N-14), the pIC50 is 8.08.
The same measure for `CCCC[C@H]1C(=O)N(C)[C@@H](CCCC)C(=O)N[C@@H](CC(C)C)C(=O)N[C@H](C(=O)NCC(N)=O)CSCC(=O)N[C@@H](Cc2ccc(O)cc2)C(=O)N(C)[C@@H](C)C(=O)N[C@@H](CC(N)=O)C(=O)N2CCC[C@H]2C(=O)N[C@H]2CNCc3c(ccc(Cl)c3F)B(O)OC(=O)Cn3cc(c4ccccc43)C[C@H](NC(=O)[C@H](CCN)NC(=O)[C@H](Cc3c[nH]c4ccccc34)NC(=O)[C@@H]3C[C@@H](O)CN3C(=O)[C@H](CC(C)C)NC2=O)C(=O)N1C` [Example 1017] ({CH2CO}-Y[NMeA]NP[X22]L[Hyp]W[Dab][Trp(1-CH2CO)][NMeNle][NMeNle]LCG-NH2; ester 5-10; thioether N-14): 8.15.
In the case of `CCCC[C@H]1C(=O)N(C)[C@@H](CCCC)C(=O)N[C@@H](CC(C)C)C(=O)N[C@H](C(=O)NCC(N)=O)CSCC(=O)N[C@@H](Cc2ccc(O)cc2)C(=O)N(C)[C@@H](C)C(=O)N[C@@H](CC(N)=O)C(=O)N2CCC[C@H]2C(=O)N[C@H]2CNCc3ccc(Cl)cc3B(O)OC(=O)Cn3cc(c4ccccc43)C[C@H](NC(=O)[C@H](CCN)NC(=O)[C@H](Cc3c[nH]c4ccccc34)NC(=O)[C@@H]3C[C@@H](O)CN3C(=O)[C@H](CC(C)C)NC2=O)C(=O)N1C` [Example 1018] ({CH2CO}-Y[NMeA]NP[X31]L[Hyp]W[Dab][Trp(1-CH2CO)][NMeNle][NMeNle]LCG-NH2; ester 5-10; thioether N-14), the pIC50 was 8.31.
The same measure for `CCCC[C@H]1C(=O)N(C)[C@@H](CCCC)C(=O)N[C@@H](CC(C)C)C(=O)N[C@H](C(=O)NCC(N)=O)CSCC(=O)N[C@@H](Cc2ccc(O)cc2)C(=O)N(C)[C@@H](C)C(=O)N[C@@H](CC(N)=O)C(=O)N2CCC[C@H]2C(=O)N[C@H]2CNCc3cc(ccc3OCc3ccccc3)B(O)OC(=O)Cn3cc(c4ccccc43)C[C@H](NC(=O)[C@H](CCN)NC(=O)[C@H](Cc3c[nH]c4ccccc34)NC(=O)[C@@H]3C[C@@H](O)CN3C(=O)[C@H](CC(C)C)NC2=O)C(=O)N1C` [Example 1019] ({CH2CO}-Y[NMeA]NP[X7]L[Hyp]W[Dab][Trp(1-CH2CO)][NMeNle][NMeNle]LCG-NH2; ester 5-10; thioether N-14): 8.32; for `CCCC[C@H]1C(=O)N(C)[C@@H](CCCC)C(=O)N[C@@H](CC(C)C)C(=O)N[C@H](C(=O)NCC(N)=O)CSCC(=O)N[C@@H](Cc2ccc(O)cc2)C(=O)N(C)[C@@H](C)C(=O)N[C@@H](CC(N)=O)C(=O)N2CCC[C@H]2C(=O)N[C@H]2CNCc3ccc(cc3Cl)B(O)OC(=O)Cn3cc(c4ccccc43)C[C@H](NC(=O)[C@H](CCN)NC(=O)[C@H](Cc3c[nH]c4ccccc34)NC(=O)[C@@H]3C[C@@H](O)CN3C(=O)[C@H](CC(C)C)NC2=O)C(=O)N1C` [Example 1020] ({CH2CO}-Y[NMeA]NP[X8]L[Hyp]W[Dab][Trp(1-CH2CO)][NMeNle][NMeNle]LCG-NH2; ester 5-10; thioether N-14): 7.85; for `CCCC[C@H]1C(=O)N(C)[C@@H](CCCC)C(=O)N[C@@H](CC(C)C)C(=O)N[C@H](C(=O)NCC(N)=O)CSCC(=O)N[C@H]2Cc3ccc(cc3)OB(O)c3ccc(C)cc3CNCC[C@@H]3NC(=O)[C@H](Cc4c[nH]c5ccccc45)NC(=O)[C@@H]4C[C@@H](O)CN4C(=O)[C@H](CC(C)C)NC(=O)[C@H](CNCc4cc(C)ccc4B(O)OC(=O)Cn4cc(c5ccccc54)C[C@H](NC3=O)C(=O)N1C)NC(=O)[C@@H]1CCCN1C(=O)[C@H](CC(N)=O)NC(=O)[C@H](C)N(C)C2=O` [Example 1021]: 8.28.
Under `CCCC[C@H]1C(=O)N(C)[C@@H](CCCC)C(=O)N[C@@H](CC(C)C)C(=O)N[C@H](C(=O)NCC(N)=O)CSCC(=O)N[C@@H](Cc2ccc(O)cc2)C(=O)N(C)[C@@H](C)C(=O)N[C@@H](CC(N)=O)C(=O)N2CCC[C@H]2C(=O)N[C@H]2CNCc3cccc(c3F)B(O)OC(=O)Cn3cc(c4ccccc43)C[C@H](NC(=O)[C@H](CCNCc3cccc(B(O)O)c3F)NC(=O)[C@H](Cc3c[nH]c4ccccc34)NC(=O)[C@@H]3C[C@@H](O)CN3C(=O)[C@H](CC(C)C)NC2=O)C(=O)N1C` [Example 1022] ({CH2CO}-Y[NMeA]NP[X19]L[Hyp]W[X20][Trp(1-CH2CO)][NMeNle][NMeNle]LCG-NH2; ester 5-10; thioether N-14) stands 8.30.

The values above are taken from patent publication US20230365627A1, “MACROCYCLIC PEPTIDE BORONATE IMMUNOMODULATORS” (Bristol-Myers Squibb Company, priority 2020, published 2023).
